# Reference: patent US20030228572A1, “Method of determining the efficacy of a compound in treating microbial infection” (priority 1998, published 2003)
# Legend:
# [1] = test system: S. aureus ATCC 29213 (OSSA); test: Impedance growth curves (detection time, DT) on Mueller-Hinton agar with oxacillin, BACTOMETER M-128; assay type: cell-based; settings: for DT (detection time): Mueller-Hinton agar
# Experimental: (§1) Mueller-Hinton agar containing different concentrations of oxacillin (0 to 128 μg) was prepared by two-fold serial dilutions, and 0.6 ml of the medium was dispensed into the module wells of […]-128 (bioMerieux Vitek, Hazelwood, Mo.). The three ATCC S. aureus strains were used to observe the effect of oxacillin concentration on the impedance curves during bacterial growth. These strains were subcultured on TSA for 18 to 24 hours (“h”) at 37° C. One single colony on TSA was inoculated into 10 ml of TSB, incubated at 37° C. for several hours, and diluted with 0.1% peptone water to a turbidity of 0.5 McFarland. An aliquot (0.1 ml) of the bacterial suspensions was inoculated into the module well containing Mueller-Hinton agar supplemented with oxacillin. The inoculated modules (each module contains 16 wells) were inserted into the incubator of BACTOMETER set at 37° C. The impedance change in each well was continuously monitored and recorded by the instrument at 6-minute (“min”) intervals for 24 h, and results were obtained graphically as impedance growth curves. DT in hours for each well was automatically determined by the instrument software when three consecutive readings of impedance change exceeded the default value in the instrument, or was manually determined by locating the inflection point (where an accelerating change of impedance was evident) on the impedance curve.
# [2] = test system: S. aureus ATCC 33591 (ORSA); test: as above; assay type: cell-based; settings: for DT (detection time): Mueller-Hinton agar, without oxacillin 5.3 h
# Experimental: as §1
# [3] = test system: S. aureus ATCC 33592 (ORSA); test: as above; assay type: cell-based; settings: for DT (detection time): Mueller-Hinton agar, without oxacillin 5.3 h
# Experimental: as §1
# [4] = test system: clinical S. aureus isolates, ORSA; test: Oxacillin susceptibility test of clinical isolates by the impedance method; assay type: cell-based; settings: for DT in h on Mueller-Hinton agar With Oxacillin (2 μg/ml), mean ± standard deviation: without oxacillin 5.7 ± 0.6 h
# Experimental: (§2) Susceptibility tests of the 235 clinical isolates of S. aureus were performed in a similar way to that used for the ATCC strains, except that only one concentration (2 μg/ml) of oxacillin in Mueller-Hinton agar was used. A negative control (Mueller-Hinton agar without oxacillin) was included for each strain tested. A strain was designated as OSSA if, in the presence of the antibiotic, there was no DT obtained within an incubation period of 24 h. A strain was designated as ORSA if, in the presence of the antibiotic, the DT was not affected or the delay in DT was less than 3 h as compared to the negative control. S. aureus ATCC 29213 (OSSA) and ATCC 33592 (ORSA) were run at the same time as controls. Strains showing discrepant results were reconfirmed by the oxacillin screen agar (Becton Dickinson Microbiology Systems, Cockysville, Md.).
# [5] = test system: clinical S. aureus isolates, OSSA; test: as above; assay type: cell-based
# Experimental: as §2
# [6] = test system: blood cultures containing ORSA; test: Direct detection in blood cultures by the impedance method; assay type: cell-based, S. aureus; settings: oxacillin 2 μg/ml; 36 of 38 vials containing ORSA
# Experimental: (§3) Blood specimens were collected at the National Cheng Kung University Hospital during a period in 1996. The BACTEC NR6A and NR7A vials (containing about 30 ml of liquid media; Becton Dickinson Microbiology Systems) were normally inoculated with 3 to 5 ml of blood from the patients, inserted into a BACTEC NR660 instrument (Becton Dickinson Microbiology Systems), and incubated at 37° C. A small aliquot (0.1 to 0.2 ml) of the culture broth was drawn from the vials showing growth of gram-positive cocci (as determined by Gram stain), heated in a boiling water bath for 15 min, and tested for thermonuclease activities on slides coated with toluidine blue-DNA agar (Bennett et al., Staphylococcus aureus, pp. 161-166, In: Bacteriological Analytical Manual, 7th ed. Association of Official Analytical Chemists International, Arlington, Va., 1992). A positive thermonuclease reaction was the development of a pink halo extending at least 1 mm from the periphery of the reaction well. […] The modules were incubated at 37° C. and DTs of the wells were automatically determined by the instrument or by manual inspection of the impedance curves. A vial was designated as ORSA or OSSA positive according to the same parameters set for pure stock cultures. […]
# [7] = test system: blood cultures containing OSSA; test: as above; assay type: cell-based, S. aureus; settings: oxacillin 2 μg/ml; 57 of 58 blood cultures containing OSSA; within an incubation period of 24 h
# Experimental: as §3
# [8] = oxacillin concentration as high as 128 μg/ml
# [9] = oxacillin concentration as high as 64 yg/ml
smiles,measurement,setting,value
Cc1onc(-c2ccccc2)c1C(=O)N[C@@H]1C(=O)N2[C@@H]1SC(C)(C)[C@@H]2C(=O)O [oxacillin],DT (detection time),"[1]; oxacillin 0.063 μg per ml, without oxacillin 4.0 h",4.1 h
same,increase in DT,[1]; oxacillin 0.063 μg/ml versus no oxacillin,0.1 h
same,DT (detection time),"[1]; oxacillin 0.125 μg per ml, without oxacillin 4.0 h",4.1 h
same,increase in DT,[1]; oxacillin 0.125 μg/ml versus no oxacillin,0.1 h
same,DT (detection time),"[1]; oxacillin 0.25 μg per ml, within 16 hours",no DT
same,growth,[1]; oxacillin 0.25 μg/ml,almost completely inhibited
same,DT (detection time),[2]; oxacillin 32 μg per ml,6.2 h
same,DT (detection time),[2]; oxacillin 64 μg per ml,6.8 h
same,DT (detection time),[2]; oxacillin 128 μg per ml,12.1 h
same,growth,[2]; [8],not inhibited to a large extent
same,growth,[2]; [9],only slightly inhibited
same,DT (detection time),[3]; oxacillin 32 μg per ml,6.3 h
same,DT (detection time),[3]; oxacillin 64 μg per ml,7.0 h
same,DT (detection time),[3]; oxacillin 128 μg per ml,9.3 h
same,growth,[3]; [8],not inhibited to a large extent
same,growth,[3]; [9],only slightly inhibited
same,DT in h (range) on Mueller-Hinton agar With Oxacillin (2 μg/ml),"[4]; 141 ORSA strains, range over strains",4.7 to 9.1 h
same,"DT in h on Mueller-Hinton agar With Oxacillin (2 μg/ml), mean ± standard deviation",[4]; 141 ORSA strains,6.0 ± 0.7 h
same,"DT in h on Mueller-Hinton agar With Oxacillin (2 μg/ml), mean ± standard deviation","[4]; 141 ORSA strains, listed as Oxacillin",6.0 ± 0.7 h
same,delay in DTs compared to negative controls,"[4]; oxacillin 2 μg/ml, 141 of 149 ORSA strains (DTs equal to controls or delayed)",less than 3 h
same,DT behind the negative control,"[4]; oxacillin 2 μg/ml, false-negative strain no. 127",17 h
same,DT,"[4]; oxacillin 2 μg/ml, false-negative strain no. 127, negative control DT=5.7 h",22.7 h
same,DT,"[4]; oxacillin 2 μg/ml, seven of the eight false-negative strains, within an incubation period of 24 h",no DT
same,DT in h (range) on Mueller-Hinton agar With Oxacillin (2 μg/ml),"[5]; 84 correctly identified of 86 OSSA strains, 24 h incubation","—^c (—, DT was not found within an incubation period of 24 h.)"
same,DT,"[5]; oxacillin 2 μg/ml, 84 of the 86 OSSA strains, within an incubation period of 24 h",no DT
same,average DT,[6],5.5 h
same,DT,[7],no DTs
